Square brackets hold non-standard residues; d marks the D form. Peptide text beside a SMILES is read from it. * marks the point of attachment. Palmitoyl = CCCCCCCCCCCCCCCC(=O)*
What was measured:
[1] = test system: ovary of female rats; assay: Assay for ovarian morphological change (H&E stained ovaries); type: in vivo; settings: single subcutaneous dose 12.5 mg/kg (as cyclodextrin compositions), day 28, versus non-treated and methyl-β-cyclodextrin groups
Experimental: Experiments were carried out to examine whether or not the fatty acid-conjugated GnRH derivatives maintain the functional characteristics and incur a morphological change in the ovary.
The pharmaceutical compositions of Examples 9, 10, 13, 14, 15, and 16 were each subcutaneously injected at a single dose of 12.5 mg/kg once at the back of the neck to female rats 9 weeks old. Rats to which no drugs were administered were used as a non-treated control while an aqueous solution of 3 mg of methyl-β-cyclodextrin was injected to a negative control. Each group consisted of 3 rats.
On day 28 after injection, the rats were subjected to an autopsy to excise the ovaries which were then stained with hematoxylin-eosin (H&E stain).
Briefly, ovaries were stained with H&E and observed as follows.
11. After finishing the above procedures, the specimen slides were scanned using a ScanScope® AT slider scanner (Aperio) and the images thus stored were analyzed using the ImageScope program (Aperio). The scanned images are depicted in FIGS. 6 to 9.
It is known that when administered to rats, a GnRH agonist reduces the formation of secondary follicles and Graafian follicles (see: Mohammadbeigi et al., Short-term Administration of Gonadotropin-releasing Hormone Agonist (Buserelin) Induces Apoptosis in Rat Ovarian Developmental Follicles, July 2016). In this experiment, secondary and Graafian follicles on ovary images in each treatment group were indicted by arrows to examine whether the number of the follicles is reduced or not.

[2] = test system: LNCaP; assay: Cell viability assay (CCK-8), prostate cancer cell line LNCaP; type: cell-based
Experimental: (§1) GnRH derivatives are clinically applied to the therapy of diseases including breast cancer, prostate cancer, endometriosis, central precocious puberty, and the like. […] An assay for cell viability was performed using the Cell Counting Kit-8 (CCK-8, manufactured by DOJINDO). Each of the cell lines was separated from the T75 flask by trypsinization and transferred to 96-well plates at a density of 1×10^4 cells/mL for DU-145 and at a density of 1×10^5 cells/mL for PC3 and LNCaP, followed by incubation for one hour for attachment.
(§2) Subsequently, each cell line was treated with 100 μM and 200 μM of each of the derivatives of Comparative Examples 1 to 3 and Examples 9 to 16 and the control. In brief, 1% methyl β-cyclodextrin was used as a negative control for cell viability while 0.1% sodium dodecyl sulfate (SDS) served as a positive control. After 48 hours of incubation, the existing culture medium was removed, and 100 μL of fresh culture medium and 10 μL of CCK-8 solution were applied to each cell line. Again, after 48 hours of incubation, the medium solution was replaced by 100 μL of fresh culture medium and 10 μL of CCK-8 solution. The cells were incubated for 4 hours, and then the absorbance was measured at 450 nm to assess cell viability.

[3] = test system: DU-145; assay: Cell viability assay (CCK-8), prostate cancer cell line DU-145; type: cell-based
Experimental: as §1, §2

[4] = test system: PC3; assay: Cell viability assay (CCK-8), prostate cancer cell line PC3; type: cell-based
Experimental: as §1, §2

[5] = cited from earlier work
[6] = Blood concentration over time and pharmacokinetic analysis after single subcutaneous administration (LC/MSMS); type: in vivo, female SD rats; settings: rats, 12.5 mg/kg s.c. once
Experimental: The present inventor carried out animal experiments (female SD rats, nine weeks old) in order to examine the increased in vivo half-lives of the prepared fatty acid-conjugated GnRH derivatives. […] DMSO (dimethyl sulfoxide) was used as a solvent as needed. Before administration and at 0.5, 1, 2, and 6 hours and on days 1, 3, 7, 10, 14, 21, and 28 after administration, blood samples were taken from the tail vein of the rats and measured for the blood concentrations of Leuprolide and the derivatives of the Examples, using LC/MSMS. If the concentration reached about 4 ng/mL at a specific time point, no measurements were further made for the next time point.
In the following table, the numerical unit is ng/mL.
The measurement results are graphically depicted in FIGS. 10 to 12. Based on the results, pharmacokinetic analysis was carried out by calculating the half-life (t1/2), clearance rate (CL), volume of distribution (Vd), time to reach the maximum concentration following drug administration (Tmax), maximum concentration following drug administration (Cmax), and systemic exposure to drug (AUCt). The analysis results are as follows.

[7] = emulsion, same dose; cited from earlier work
[8] = treatment conc. 200 μM, listed as Comparative Example 3

Arachidic acid-Glu-His-Trp-Ser-Tyr-D-Leu-Leu-Arg-Pro-NHEt ({Arachidic acid}-EHWSY[dL]LRP-NHEt; also: acetate salt) [Example 7]
numbers of secondary or Graafian follicles in the ovary [1]: decreased

Lauric acid-Glu-His-Trp-Ser-Tyr-D-Leu-Leu-Arg-Pro-NHEt ({Lauric acid}-EHWSY[dL]LRP-NHEt; also: acetate salt) [Example 1]
numbers of secondary or Graafian follicles in the ovary [1]: decreased

CC(C)C[C@H](NC(=O)[C@@H](Cc1c[nH]c2ccccc12)NC(=O)[C@H](Cc1ccc(O)cc1)NC(=O)[C@H](CO)NC(=O)[C@H](Cc1c[nH]c2ccccc12)NC(=O)[C@H](Cc1c[nH]cn1)NC(=O)[C@@H]1CCC(=O)N1)C(=O)N[C@@H](CCCNC(=N)N)C(=O)N1CCC[C@H]1C(=O)NCC(N)=O [C. Example 3, pyroGlu-His-Trp-Ser-Tyr-D-Trp-Leu-Arg-Pro-Gly-NH2]
Viability of LNCaP relative to negative control 1% methyl-β-cyclodextrin (%) ([2]; treatment conc. 100 μM): 92.89 ± 4.33% | Viability of LNCaP relative to negative control 1% methyl-β-cyclodextrin (%) ([2]; treatment conc. 200 μM): 90.22 ± 4.03% | Viability of LNCaP relative to negative control 1% methyl-β-cyclodextrin (%) [2, 8]: about 90% | Viability of DU-145 relative to negative control 1% methyl-β-cyclodextrin (%) ([3]; treatment conc. 100 μM): 100.92 ± 2.98% | Viability of DU-145 relative to negative control 1% methyl-β-cyclodextrin (%) ([3]; treatment conc. 200 μM): 94.27 ± 3.47% | Viability of DU-145 relative to negative control 1% methyl-β-cyclodextrin (%) [3, 8]: about 94% | Viability of PC3 relative to negative control 1% methyl-ß-cyclodextrin (%) ([4]; treatment conc. 100 μM): 99.67 ± 3.17% | Viability of PC3 relative to negative control 1% methyl-ß-cyclodextrin (%) ([4]; treatment conc. 200 μM): 95.44 ± 4.03% | Viability of PC3 relative to negative control 1% methyl-ß-cyclodextrin (%) [4, 8]: about 95%

CC(C)C[C@H](NC(=O)CNC(=O)[C@H](Cc1ccc(O)cc1)NC(=O)[C@H](CO)NC(=O)[C@H](Cc1c[nH]c2ccccc12)NC(=O)[C@H](Cc1cnc[nH]1)NC(=O)[C@@H]1CCC(=O)N1)C(=O)N[C@@H](CCCNC(=N)N)C(=O)N1CCC[C@H]1C(=O)NCC(N)=O [C. Example 1]
in vivo half-life in circulating blood [5]: 2 to 4 min

CCCCCCCCCCCCCCCC(=O)N[C@@H](CCC(N)=O)C(=O)N[C@@H](Cc1c[nH]cn1)C(=O)N[C@@H](Cc1c[nH]c2ccccc12)C(=O)N[C@@H](CO)C(=O)N[C@@H](Cc1ccc(O)cc1)C(=O)N[C@H](CC(C)C)C(=O)N[C@@H](CC(C)C)C(=O)N[C@@H](CCCNC(=N)N)C(=O)N1CCC[C@H]1C(=O)NCC [Example 6, Palmitic acid-Gln-His-Trp-Ser-Tyr-D-Leu-Leu-Arg-Pro-NHEt] (Palmitoyl-QHWSY[dL]LRP-NHEt)
Tmax (time to reach the maximum concentration) [6]: 6 h | CL (clearance rate) ([6]; 12.5 mg/kg): 0.075 (mg/kg)/(ng/mL)/Day | Cmax (maximum concentration) ([6]; 12.5 mg/kg): 45.7 ng/mL | Vd (volume of distribution) ([6]; 12.5 mg/kg): 0.436 (mg/kg)/(ng/mL) | t1/2 (half-life) ([6]; 12.5 mg/kg): 96.7 h

CCCCCCCCCCCCOS(=O)(=O)[O-].[Na+] [Positive Control (0.1% SDS), sodium dodecyl sulfate]
Viability of LNCaP relative to negative control 1% methyl-β-cyclodextrin (%) ([2]; positive control, 0.1% SDS): 20.45 ± 1.58% | Viability of DU-145 relative to negative control 1% methyl-β-cyclodextrin (%) ([3]; positive control, 0.1% SDS): 18.18 ± 2.32% | Viability of PC3 relative to negative control 1% methyl-ß-cyclodextrin (%) ([4]; positive control, 0.1% SDS): 15.11 ± 1.72%

dexamethasone palmitate
anti-inflammatory effect relative to dexamethasone alone [7]: 5.6 fold

Lauric acid-Gln-His-Trp-Ser-Tyr-D-Leu-Leu-Arg-Pro-NHEt ({Lauric acid}-QHWSY[dL]LRP-NHEt; also: acetate salt) [Example 2]
numbers of secondary or Graafian follicles in the ovary [1]: decreased

CCCCCCCCCCCCCCCC(=O)N[C@@H](CCC(N)=O)C(=O)N[C@@H](Cc1c[nH]cn1)C(=O)N[C@@H](Cc1c[nH]c2ccccc12)C(=O)N[C@@H](CO)C(=O)N[C@@H](Cc1ccc(O)cc1)C(=O)N[C@H](CC(C)C)C(=O)N[C@@H](CC(C)C)C(=O)N[C@@H](CCCNC(=N)N)C(=O)N1CCC[C@H]1C(=O)NCC [Example 4, Palmitic acid-Gln-His-Trp-Ser-Tyr-D-Leu-Leu-Arg-Pro-NHEt] (Palmitoyl-QHWSY[dL]LRP-NHEt)
AUC(0-t) ([6]; female, SD, rat, blood, sc, 12.5 mg/kg, read-out: AUCt (systemic exposure to drug) (converted)): 5190 ng·h/mL | Cmax ([6]; female, SD, rat, blood, sc, 12.5 mg/kg, read-out: Cmax (maximum concentration)): 52.2 ng/mL | half-life ([6]; female, SD, rat, blood, sc, 12.5 mg/kg, read-out: t1/2 (half-life) (converted)): 115 h | Tmax ([6]; female, SD, rat, blood, sc, read-out: Tmax (time to reach the maximum concentration) (converted)): 6 h | CL (clearance rate) ([6]; 12.5 mg/kg): 0.051 (mg/kg)/(ng/mL)/Day | Vd (volume of distribution) ([6]; 12.5 mg/kg): 0.351 (mg/kg)/(ng/mL)

Palmitic acid-Glu-His-Trp-Ser-Tyr-D-Leu-Leu-Arg-Pro-NHEt (Palmitoyl-EHWSY[dL]LRP-NHEt; also: acetate salt) [Example 5]
numbers of secondary or Graafian follicles in the ovary [1]: decreased

Arachidic acid-Gln-His-Trp-Ser-Tyr-D-Leu-Leu-Arg-Pro-NHEt ({Arachidic acid}-QHWSY[dL]LRP-NHEt; also: acetate salt) [Example 8]
numbers of secondary or Graafian follicles in the ovary [1]: decreased

From US11975048B2, “Long-acting fatty acid-conjugated GnRH derivatives and pharmaceutical compositions containing same” (NOVEL PHARMA INC., priority 2019, dated 2024)
